“And” between values parts separate entries of the source, which are not always exact repeats. Equal entries are not always repeated.
Key:
[1] = Density measurements: partial molar volume and thermal expansivity of the solute; format: physicochemical; settings: 50 mM phosphate buffer pH 11; for α2^0, thermal volumetric expansivity of the solute: 20, 25, 30 °C; for V2^0, partial molar volume: 25 °C
Procedure: Partial molar volumes were estimated with a density meter Anton Paar DMA 5000 M at 20, 25, and 30 °C from the concentration–density dependency for compounds dissolved in 50 mM phosphate buffer (pH 11). The experimental procedure and the data analysis method were described previously.[36],[57],[58] The partial molar volume at 25 °C (V2^0) and thermal volumetric expansivity of the solute (α2^0 = ∂V2^0/∂T) were estimated globally from two independent dilution series. The density of pure solvent (d0) was extrapolated individually for each experimental condition (i.e., temperature and buffer preparation). The change of d0 with temperature was further used to determine thermal volumetric expansivity coefficient of the bulk buffer according to the formula α0 = −(∂d0/∂T)/d0.
According to the Lum, Chandler, and Weeks (LCW) theory, the hydrophobic interactions scale for solutes of subnanometer size with the volume of the molecule rather than its surface.[61] We have recently proposed partial molar volume as the extensive parameter to describe both the solute volume and the solute-induced reorganization of the solvation shell.[36],[57],[58],[62],[63] By analyzing density data at three temperatures (20, 25, and 30 °C), we could estimate the partial molar volume of the ligand (V2^0) and the bulk solvent density (d0(T)). We could further separate the thermal expansivity coefficient of the bulk solvent (α0) and the apparent expansivity of the solute (α2^0). The latter parameter is comprised mainly of the thermal expansion effect of the hydration shell. The values of α0 fell within the narrow range of (26.9 ± 1.3) × 10^–5 K^–1, which is close to the literature data for water (25.72 × 10^–5 K^–1 at 25 °C).[64] […] The solute thermal expansivity (α2^0), together with the change of isobaric heat capacity upon ligand binding (ΔCp,bind), has already been associated with the properties of the solvation layer.[65],[66] Importantly, α2^0 is proportional to the partial molar volume V2^0 (Figure 3D). So, V2^0 may be another descriptor of hydrophobic interactions. Consequently, the volume-normalized solute expansivity coefficient (α = α2^0/V2^0) is almost the same for all studied bromobenzotriazoles (232 ± 22 × 10^–5 K^–1). Importantly, this value substantially exceeds the thermal expansivity coefficient of the bulk buffer (α0 = 26.9 ± 1.3 × 10^–5 K^–1), clearly confirming that water organization changes with temperature more near the solute surface than in the bulk.

[2] = set-up: method as in doi:10.1016/j.molliq.2019.111527; settings: calculated water–octanol partition coefficient; cited from earlier work
[3] = set-up: method as in PMID 32162783; settings: HPLC-derived hydrophobicity; cited from earlier work
hCK2α [4] = target: T1, hCK2α (Homo sapiens, UniProt P68400); test: Fluorescence-monitored thermal denaturation (nanoDSF) of hCK2α complexes; format: binding; settings: protein 2.5 μM, ligand 25 μM; for Tm (°C) at pH 7.5: hCK2α in complex with ligand; for ΔTm (°C) at pH 7.5: unfolding temperature with ligand minus without
T1 construct: made in house
Procedure: The samples were loaded into nanoDSF grade Standard Capillaries (NanoTemper Technologies) and analyzed using the Prometheus NT.48 nanoDSF device (NanoTemper Technologies). Thermal unfolding of the protein was monitored using a linear thermal ramp (1 °C·min^–1; 20–80 °C) with an excitation power of 30%.
This prompted us to measure the thermal stabilities of hCK2α and its complexes at pH 7.5 by fluorescence-monitored thermal denaturation (nanoDSF) (Table 2).

hCK2α [5] = target: T1, hCK2α; test: Isothermal titration calorimetry (MicroCal iTC200), reverse titration; format: binding; settings: for ΔGbind, free energy of binding: ITC; for ΔSrt, entropic term for loss of ligand rotational and translational degrees of freedom: calculated from ligand molecular mass; for Ts, temperature at which the entropy change upon ligand binding is zero: estimated from the linear fit of ΔS(T); for ΔSHE(Ts), hydrophobic-effect contribution to the entropy change upon binding: ≈ 1.35∙ΔCp,bind∙ln(Ts/386); for ΔSother, entropy change assigned to all other processes accompanying ligand binding: ΔSrt + ΔSHE(Ts) + ΔSother = 0
Procedure: ITC measurements were carried out using the MicroCal iTC200 (Malvern) calorimeter. The hCK2α samples were diluted to the required protein concentration with the 25 mM Tris-HCl pH 8 buffer containing 0.5 M NaCl. Stock ligand solutions were diluted with the appropriate DMSO volume prior to mixing with the buffer to obtain the required ligand concentration and a final DMSO content of 1%. Due to the limited solubility of halogenated benzotriazoles, all titration experiments were performed in the reverse mode, in which buffered ligand solution was placed in the calorimetric cell and titrated with the protein solution.[35]
(§1) In all experiments the maximum ligand concentration of 10 μM was used to minimize a possible contribution of the secondary binding site.

hCK2α [6] = target: T1, hCK2α; test: Isothermal titration calorimetry (NanoITC); format: binding; settings: pH 8
Procedure: as §1

hCK2α [7] = target: T1, hCK2α; set-up: method as in PMID 25891901; settings: cited from earlier work
hCK2α [8] = target: T1, hCK2α; set-up: method as in PMID 23155426; settings: pH 7.5; cited from earlier work
[9] = iTC200, 15 °C, pH 8, independent experiments separately evaluated
[10] = iTC200, 20 °C, pH 8, independent experiments separately evaluated
[11] = iTC200, 25 °C, pH 8, independent experiments separately evaluated
[12] = iTC200, 30 °C, pH 8, independent experiments separately evaluated
[13] = iTC200, 35 °C, pH 8, independent experiments separately evaluated

T1 sequence (P68400 whole entry): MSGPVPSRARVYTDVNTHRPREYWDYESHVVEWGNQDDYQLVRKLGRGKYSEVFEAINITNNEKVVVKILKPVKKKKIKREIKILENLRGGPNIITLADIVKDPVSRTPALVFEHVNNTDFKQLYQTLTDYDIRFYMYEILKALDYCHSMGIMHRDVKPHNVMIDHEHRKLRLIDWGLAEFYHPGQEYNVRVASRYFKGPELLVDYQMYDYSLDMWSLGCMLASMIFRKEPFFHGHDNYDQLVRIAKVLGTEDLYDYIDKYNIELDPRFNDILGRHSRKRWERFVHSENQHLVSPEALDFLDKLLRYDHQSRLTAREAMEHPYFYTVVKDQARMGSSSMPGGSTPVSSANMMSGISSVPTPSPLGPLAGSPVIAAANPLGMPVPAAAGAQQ

Row | Compound | α2^0, thermal volumetric expansivity of the solute [1] [cm^3·mol^–1·K^–1] | V2^0, partial molar volume [1] [cm^3·mol^–1] | log P [2] | log(τ) [3] | Tm (°C) at pH 7.5 (hCK2α [4]) [°C] | ΔTm (°C) at pH 7.5 (hCK2α [4]) [°C] | ΔGbind, free energy of binding (hCK2α [5]; 25 °C, pH 8) | ΔSrt, entropic term for loss of ligand rotational and translational degrees of freedom (hCK2α [5]) [J∙mol-1∙K-1] | Ts, temperature at which the entropy change upon ligand binding is zero (hCK2α [5]) [K] | Kd (hCK2α [5]; [9]) | Kd (hCK2α [5]; [10]) | Kd (hCK2α [5]; [11]) | Kd (hCK2α [5]; [12]) | Kd (hCK2α [5]; [13]) | ΔSHE(Ts), hydrophobic-effect contribution to the entropy change upon binding (hCK2α [5]) [J∙mol-1∙K-1] | ΔTm (°C) at pH 8 (hCK2α [7]) [°C] | IC50 (hCK2α [8]) [µM] | ΔS (hCK2α [5]; [9]) | ΔS (hCK2α [5]; [10]) | ΔSother, entropy change assigned to all other processes accompanying ligand binding (hCK2α [5]) [J∙mol-1∙K-1] | other results
1 | Brc1c(Br)c(Br)c2[nH]nnc2c1Br [4,5,6,7-Br4Bt, 4,5,6,7-tetrabromobenzotriazole] | 0.72 ± 0.28 | 194.1 ± 1.1 | 3.58 | –0.00 | – | – | – | – | – | – | – | – | – | – | – | – | – | – | – | – | –
2 | Brc1cc2[nH]nnc2c(Br)c1Br [4,5,6-Br3Bt] | 0.49 ± 0.24 | 156.0 ± 1.0 | 2.96 | –0.20 | 53.84 ± 0.04 | 8.7 ± 0.1 | –39.5 ± 0.4 kJ·mol^–1 | -301 | 280 ± 36 | 89 nM and 51 nM | 114 nM and 130 nM | 123 nM and 116 nM | 189 nM and 109 nM | 160 nM and 215 nM | 295 ± 30 | 8.4 ± 0.1 | 0.38 ± 0.02 | – | – | – | Kd (hCK2α [6]; 15 °C): 65 ± 13 nM; ΔG (hCK2α [6]; 15 °C): -39.7 ± 0.5 kJ/mol; ΔH (hCK2α [6]; 15 °C): -29.0 ± 0.6 kJ/mol; ΔS (hCK2α [6]; 15 °C): 37 ± 4 J·mol-1·K-1; Kd (hCK2α [6]; 20 °C): 81 ± 19 nM; ΔG (hCK2α [6]; 20 °C): -39.8 ± 0.6 kJ/mol; ΔH (hCK2α [6]; 20 °C): -31.1 ± 0.9 kJ/mol; ΔS (hCK2α [6]; 20 °C): 30 ± 5 J·mol-1·K-1; Kd (hCK2α [6]; 25 °C): 42 ± 17 nM; ΔG (hCK2α [6]; 25 °C): -42.1 ± 1.0 kJ/mol; ΔH (hCK2α [6]; 25 °C): -39.6 ± 1.3 kJ/mol; ΔS (hCK2α [6]; 25 °C): 9 ± 4 J·mol-1·K-1; Kd (hCK2α [6]; 30 °C): 96 ± 17 nM; ΔG (hCK2α [6]; 30 °C): -40.7 ± 0.5 kJ/mol; ΔH (hCK2α [6]; 30 °C): -47.0 ± 1.2 kJ/mol; ΔS (hCK2α [6]; 30 °C): -21 ± 6 J·mol-1·K-1; Kd (hCK2α [6]; 35 °C): 217 ± 94 nM; ΔG (hCK2α [6]; 35 °C): -39.3 ± 1.1 kJ/mol; ΔH (hCK2α [6]; 35 °C): -56.5 ± 6.1 kJ/mol; ΔS (hCK2α [6]; 35 °C): -56 ± 23 J·mol-1·K-1
3 | Brc1cc(Br)c2[nH]nnc2c1Br [4,5,7-Br3Bt] | 0.55 ± 0.23 | 174.7 ± 0.9 | 2.98 | –0.22 | 49.81 ± 0.07 | 4.6 ± 0.1 | –34.5 ± 0.4 kJ·mol^–1 | -301 | 316 ± 33 | 670 nM and 760 nM | 710 nM and 1200 nM | 900 nM and 910 nM | 1360 nM and 760 nM | 1230 nM and 870 nM | 184 ± 16 | 5.2 ± 0.1 | 5.8 ± 0.9 | 69 ± 8 J·mol-1·K-1 and 56 ± 8 J·mol-1·K-1 | 53 ± 6 J·mol-1·K-1 and 47 ± 11 J·mol-1·K-1 | 118 ± 16 | ΔG (hCK2α [5]; [11]): -34.5 ± 0.5 kJ/mol and -34.5 ± 0.8 kJ/mol; ΔS (hCK2α [5]; [11]): 34 ± 5 J·mol-1·K-1 and 38 ± 9 J·mol-1·K-1; ΔS (hCK2α [5]; [12]): 24 ± 8 J·mol-1·K-1 and 34 ± 6 J·mol-1·K-1; ΔS (hCK2α [5]; [13]): 15 ± 6 J·mol-1·K-1 and 8 ± 6 J·mol-1·K-1
4 | Brc1ccc2[nH]nnc2c1Br [4,5-Br2Bt] | 0.36 ± 0.21 | 151.7 ± 0.9 | 2.34 | –0.39 | 49.55 ± 0.05 | 4.4 ± 0.1 | –34.9 ± 0.4 kJ·mol^–1 | -291 | 299 ± 37 | 260 nM and 470 nM | 610 nM and 540 nM | 770 nM and 670 nM | 880 nM and 1430 nM | 1440 nM and 1160 nM | 148 ± 17 | 3.5 ± 0.1 | 10.6 ± 0.9 | 21 ± 6 J·mol-1·K-1 and 22 ± 6 J·mol-1·K-1 | 8 ± 6 J·mol-1·K-1 and 7 ± 15 J·mol-1·K-1 | 143 ± 17 | ΔH (hCK2α [5]; [10]): -33.0 ± 1.5 kJ/mol and -33.0 ± 3.7 kJ/mol
5 | Brc1cc(Br)c2n[nH]nc2c1 [4,6-Br2Bt] | 0.41 ± 0.21 | 155.4 ± 0.9 | 2.37 | –0.38 | 49.21 ± 0.04 | 4.0 ± 0.1 | –34.5 ± 0.4 kJ·mol^–1 | -291 | 301 ± 47 | 343 nM and 540 nM | 550 nM and 680 nM | 900 nM and 880 nM | 1250 nM and 1140 nM and 840 nM | 2400 nM and 1770 nM | 148 ± 20 | 3.6 ± 0.1 | 10 ± 2.2 | 26 ± 8 J·mol-1·K-1 and 23 ± 12 J·mol-1·K-1 | 7 ± 15 J·mol-1·K-1 and 11 ± 13 J·mol-1·K-1 | 143 ± 20 | ΔS (hCK2α [5]; [11]): 5 ± 8 J·mol-1·K-1 and 9 ± 15 J·mol-1·K-1; ΔS (hCK2α [5]; [13]): -26 ± 71 J·mol-1·K-1 and -26 ± 13 J·mol-1·K-1
6 | Brc1ccc(Br)c2n[nH]nc12 [4,7-Br2Bt] | 0.19 ± 0.25 | 149.8 ± 1.0 | 2.37 | –0.55 | 47.15 ± 0.03 | 2.0 ± 0.1 | – | – | – | – | – | – | – | – | – | 0.9 ± 0.1 | 72 ± 11 | – | – | – | –
7 | Brc1cccc2n[nH]nc12 [4-BrBt] | 0.30 ± 0.08 | 139.6 ± 0.3 | 1.72 | –0.65 | 45.92 ± 0.05 | 0.7 ± 0.1 | – | – | – | – | – | – | – | – | – | 0.5 ± 0.1 | 119 ± 10 | – | – | – | –
